Results: the kinase profiling compilation of Christmann-Franck et al. (2016)

Columns and labels:
Experiment in all cases: radiometric filter-binding kinase assay, Kinase HotSpot
Settings in all cases: compound 0.5 µM; ATP 10 µM
ULK2 (human) = ULK2 (human) (UniProt Q8IYT8)
PIM2 (human) = PIM2 (human) (UniProt Q9P1W9)
PLK1 (human) = PLK1 (human) (UniProt P53350)
GSK3A (human) = GSK3A (human) (UniProt P49840)
MAPK14 (human) = MAPK14 (human) (UniProt Q16539)
PRKCE (human) = PRKCE (human) (UniProt Q02156)
MAPK13 (human) = MAPK13 (human) (UniProt O15264)
MAP3K8 (human) = MAP3K8 (human) (UniProt P41279)
Chain of MAP3K8 (human) (P41279 whole entry, looked up): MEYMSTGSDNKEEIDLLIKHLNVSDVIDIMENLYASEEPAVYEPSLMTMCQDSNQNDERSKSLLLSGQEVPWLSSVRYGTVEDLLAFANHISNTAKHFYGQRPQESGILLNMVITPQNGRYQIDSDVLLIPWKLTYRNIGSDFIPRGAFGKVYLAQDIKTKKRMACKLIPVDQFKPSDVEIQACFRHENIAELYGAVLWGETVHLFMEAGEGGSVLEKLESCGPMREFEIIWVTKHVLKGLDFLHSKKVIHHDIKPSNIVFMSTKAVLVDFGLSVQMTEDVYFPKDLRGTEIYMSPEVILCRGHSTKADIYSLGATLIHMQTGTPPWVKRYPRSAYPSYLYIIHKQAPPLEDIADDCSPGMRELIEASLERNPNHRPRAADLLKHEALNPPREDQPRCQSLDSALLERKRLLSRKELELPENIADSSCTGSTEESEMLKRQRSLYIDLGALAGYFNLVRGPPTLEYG

EPHB1 (human) = EPHB1 (human) (UniProt P54762)
Chain of EPHB1 (human) (P54762 whole entry, looked up): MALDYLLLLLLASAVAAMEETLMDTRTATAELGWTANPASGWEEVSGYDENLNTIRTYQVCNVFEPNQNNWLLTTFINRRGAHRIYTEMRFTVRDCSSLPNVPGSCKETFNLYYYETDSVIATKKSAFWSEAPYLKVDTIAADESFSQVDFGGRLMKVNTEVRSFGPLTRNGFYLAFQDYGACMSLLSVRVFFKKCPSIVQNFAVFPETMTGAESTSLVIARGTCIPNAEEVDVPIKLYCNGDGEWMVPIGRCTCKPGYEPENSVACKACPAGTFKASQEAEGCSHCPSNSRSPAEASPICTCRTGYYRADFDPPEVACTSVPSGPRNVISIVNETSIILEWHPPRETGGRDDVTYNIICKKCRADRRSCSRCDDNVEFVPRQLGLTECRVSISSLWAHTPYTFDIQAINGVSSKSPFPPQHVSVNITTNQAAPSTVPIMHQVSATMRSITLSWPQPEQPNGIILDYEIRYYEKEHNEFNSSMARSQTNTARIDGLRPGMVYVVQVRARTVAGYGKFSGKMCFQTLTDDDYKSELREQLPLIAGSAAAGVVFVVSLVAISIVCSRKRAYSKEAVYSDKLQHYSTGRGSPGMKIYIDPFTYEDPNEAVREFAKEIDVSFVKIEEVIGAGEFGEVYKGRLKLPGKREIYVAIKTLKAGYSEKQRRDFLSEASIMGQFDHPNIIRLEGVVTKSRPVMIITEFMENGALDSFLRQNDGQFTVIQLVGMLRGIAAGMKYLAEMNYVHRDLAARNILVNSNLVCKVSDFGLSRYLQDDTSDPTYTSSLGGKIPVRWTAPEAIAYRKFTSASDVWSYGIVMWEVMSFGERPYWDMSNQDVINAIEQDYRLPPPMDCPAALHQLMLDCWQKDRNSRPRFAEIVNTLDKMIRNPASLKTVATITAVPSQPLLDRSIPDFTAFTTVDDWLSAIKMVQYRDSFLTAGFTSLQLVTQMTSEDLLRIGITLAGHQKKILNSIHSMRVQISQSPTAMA

FGFR2 (human) = FGFR2 (human) (UniProt P21802)
PRKCB1 (human) = PRKCB1 (human) (UniProt P05771)
RPS6KB1 (human) = RPS6KB1 (human) (UniProt P23443)
JAK2 JH1 JH2 (human) = JAK2 JH1 JH2 (human) (UniProt O60674)
PDPK1 (human) = PDPK1 (human) (UniProt O15530)
PDGFRB (human) = PDGFRB (human) (UniProt P09619)
ERBB2 (human) = ERBB2 (human) (UniProt P04626)
Chain of ERBB2 (human) (P04626 whole entry, looked up): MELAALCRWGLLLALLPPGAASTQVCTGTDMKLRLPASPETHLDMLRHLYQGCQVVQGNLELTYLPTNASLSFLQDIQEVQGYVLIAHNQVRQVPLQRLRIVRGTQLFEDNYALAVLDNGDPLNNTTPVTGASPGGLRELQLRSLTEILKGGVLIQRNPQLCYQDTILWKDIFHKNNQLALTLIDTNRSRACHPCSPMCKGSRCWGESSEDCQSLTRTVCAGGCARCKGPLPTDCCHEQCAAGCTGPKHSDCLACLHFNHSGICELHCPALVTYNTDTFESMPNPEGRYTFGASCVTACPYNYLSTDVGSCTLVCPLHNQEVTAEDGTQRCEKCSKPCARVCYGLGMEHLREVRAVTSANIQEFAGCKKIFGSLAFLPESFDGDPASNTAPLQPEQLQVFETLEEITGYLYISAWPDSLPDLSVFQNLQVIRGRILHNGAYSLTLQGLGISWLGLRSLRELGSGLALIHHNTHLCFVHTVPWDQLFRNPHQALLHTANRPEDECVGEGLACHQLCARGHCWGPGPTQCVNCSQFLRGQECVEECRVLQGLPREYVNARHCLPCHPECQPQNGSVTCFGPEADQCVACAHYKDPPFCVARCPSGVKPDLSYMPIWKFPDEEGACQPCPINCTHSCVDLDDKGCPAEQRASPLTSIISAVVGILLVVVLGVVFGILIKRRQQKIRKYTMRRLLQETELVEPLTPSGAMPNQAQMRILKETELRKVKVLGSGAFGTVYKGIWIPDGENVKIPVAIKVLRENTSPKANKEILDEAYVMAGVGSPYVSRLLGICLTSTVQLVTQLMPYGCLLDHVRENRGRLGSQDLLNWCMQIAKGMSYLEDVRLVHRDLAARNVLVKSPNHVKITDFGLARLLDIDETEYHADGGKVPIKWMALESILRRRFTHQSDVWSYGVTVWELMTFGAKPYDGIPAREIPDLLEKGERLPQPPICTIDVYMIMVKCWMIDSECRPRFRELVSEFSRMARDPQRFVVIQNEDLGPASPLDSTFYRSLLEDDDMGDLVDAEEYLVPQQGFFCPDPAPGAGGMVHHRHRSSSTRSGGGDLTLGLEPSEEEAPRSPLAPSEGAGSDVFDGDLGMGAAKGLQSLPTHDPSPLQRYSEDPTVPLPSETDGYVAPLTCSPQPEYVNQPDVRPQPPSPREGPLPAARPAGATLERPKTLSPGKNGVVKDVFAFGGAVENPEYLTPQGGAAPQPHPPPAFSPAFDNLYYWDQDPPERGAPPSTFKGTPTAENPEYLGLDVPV

CLK2 (human) = CLK2 (human) (UniProt P49760)
RPS6KA1 KD1 KD2 (human) = RPS6KA1 KD1 KD2 (human) (UniProt Q15418)
MAPK12 (human) = MAPK12 (human) (UniProt P53778)
PRKD3 (human) = PRKD3 (human) (UniProt O94806)
TBK1 (human) = TBK1 (human) (UniProt Q9UHD2)
Chain of TBK1 (human) (Q9UHD2 whole entry, looked up): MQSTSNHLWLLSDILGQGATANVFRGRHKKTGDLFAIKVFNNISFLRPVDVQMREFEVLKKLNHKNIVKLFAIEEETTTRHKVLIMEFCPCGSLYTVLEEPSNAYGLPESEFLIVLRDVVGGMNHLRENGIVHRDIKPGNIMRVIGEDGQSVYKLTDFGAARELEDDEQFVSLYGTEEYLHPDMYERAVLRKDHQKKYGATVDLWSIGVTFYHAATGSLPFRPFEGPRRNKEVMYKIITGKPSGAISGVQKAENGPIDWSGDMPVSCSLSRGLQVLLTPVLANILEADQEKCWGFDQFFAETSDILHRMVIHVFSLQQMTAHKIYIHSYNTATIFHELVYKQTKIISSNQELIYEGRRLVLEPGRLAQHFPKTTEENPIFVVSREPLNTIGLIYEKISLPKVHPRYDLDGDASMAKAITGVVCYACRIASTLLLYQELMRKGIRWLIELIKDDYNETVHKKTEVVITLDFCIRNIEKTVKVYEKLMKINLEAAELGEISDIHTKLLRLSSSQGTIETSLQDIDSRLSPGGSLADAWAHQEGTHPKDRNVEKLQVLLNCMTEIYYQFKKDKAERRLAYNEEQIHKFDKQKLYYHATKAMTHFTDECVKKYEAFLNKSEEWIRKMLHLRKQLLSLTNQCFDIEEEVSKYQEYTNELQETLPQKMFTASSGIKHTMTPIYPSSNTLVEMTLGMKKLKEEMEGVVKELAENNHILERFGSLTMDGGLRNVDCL

MAPK1 (human) = MAPK1 (human) (UniProt P28482)
AURKB (human) = AURKB (human) (UniProt Q96GD4)
MUSK (human) = MUSK (human) (UniProt O15146)
FLT1 (human) = FLT1 (human) (UniProt P17948)
MAPKAPK5 (human) = MAPKAPK5 (human) (UniProt Q8IW41)
FGFR1 (human) = FGFR1 (human) (UniProt P11362)
INSRR (human) = INSRR (human) (UniProt P14616)
PRKACA (human) = PRKACA (human) (UniProt P17612)
FYN (human) = FYN (human) (UniProt P06241)
Chain of FYN (human) (P06241 whole entry, looked up): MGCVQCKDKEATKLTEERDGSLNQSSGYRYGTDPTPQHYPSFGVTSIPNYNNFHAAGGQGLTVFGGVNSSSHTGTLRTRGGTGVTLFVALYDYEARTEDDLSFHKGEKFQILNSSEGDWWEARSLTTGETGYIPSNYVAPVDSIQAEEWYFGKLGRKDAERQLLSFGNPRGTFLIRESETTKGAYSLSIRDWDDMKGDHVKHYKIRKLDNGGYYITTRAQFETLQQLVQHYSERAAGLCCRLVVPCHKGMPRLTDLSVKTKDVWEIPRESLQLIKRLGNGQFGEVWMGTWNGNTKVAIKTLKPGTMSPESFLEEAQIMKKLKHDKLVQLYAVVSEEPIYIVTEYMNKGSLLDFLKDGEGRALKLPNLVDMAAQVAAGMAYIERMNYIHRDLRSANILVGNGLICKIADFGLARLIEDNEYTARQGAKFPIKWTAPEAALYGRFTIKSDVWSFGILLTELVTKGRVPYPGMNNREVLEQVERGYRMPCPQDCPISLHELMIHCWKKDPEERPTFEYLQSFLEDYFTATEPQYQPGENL

AURKA (human) = AURKA (human) (UniProt O14965)
PHKG2 (human) = PHKG2 (human) (UniProt P15735)
PLK2 (human) = PLK2 (human) (UniProt Q9NYY3)
TYRO3 (human) = TYRO3 (human) (UniProt Q06418)
TSSK2 (human) = TSSK2 (human) (UniProt Q96PF2)
PAK3 (human) = PAK3 (human) (UniProt O75914)
WNK2 (human) = WNK2 (human) (UniProt Q9Y3S1)
GRK6 (human) = GRK6 (human) (UniProt P43250)
DAPK2 (human) = DAPK2 (human) (UniProt Q9UIK4)
INSR (human) = INSR (human) (UniProt P06213)
MARK1 (human) = MARK1 (human) (UniProt Q9P0L2)
MARK2 (human) = MARK2 (human) (UniProt Q7KZI7)

Chain of ULK2 (human) (Q8IYT8 whole entry, looked up): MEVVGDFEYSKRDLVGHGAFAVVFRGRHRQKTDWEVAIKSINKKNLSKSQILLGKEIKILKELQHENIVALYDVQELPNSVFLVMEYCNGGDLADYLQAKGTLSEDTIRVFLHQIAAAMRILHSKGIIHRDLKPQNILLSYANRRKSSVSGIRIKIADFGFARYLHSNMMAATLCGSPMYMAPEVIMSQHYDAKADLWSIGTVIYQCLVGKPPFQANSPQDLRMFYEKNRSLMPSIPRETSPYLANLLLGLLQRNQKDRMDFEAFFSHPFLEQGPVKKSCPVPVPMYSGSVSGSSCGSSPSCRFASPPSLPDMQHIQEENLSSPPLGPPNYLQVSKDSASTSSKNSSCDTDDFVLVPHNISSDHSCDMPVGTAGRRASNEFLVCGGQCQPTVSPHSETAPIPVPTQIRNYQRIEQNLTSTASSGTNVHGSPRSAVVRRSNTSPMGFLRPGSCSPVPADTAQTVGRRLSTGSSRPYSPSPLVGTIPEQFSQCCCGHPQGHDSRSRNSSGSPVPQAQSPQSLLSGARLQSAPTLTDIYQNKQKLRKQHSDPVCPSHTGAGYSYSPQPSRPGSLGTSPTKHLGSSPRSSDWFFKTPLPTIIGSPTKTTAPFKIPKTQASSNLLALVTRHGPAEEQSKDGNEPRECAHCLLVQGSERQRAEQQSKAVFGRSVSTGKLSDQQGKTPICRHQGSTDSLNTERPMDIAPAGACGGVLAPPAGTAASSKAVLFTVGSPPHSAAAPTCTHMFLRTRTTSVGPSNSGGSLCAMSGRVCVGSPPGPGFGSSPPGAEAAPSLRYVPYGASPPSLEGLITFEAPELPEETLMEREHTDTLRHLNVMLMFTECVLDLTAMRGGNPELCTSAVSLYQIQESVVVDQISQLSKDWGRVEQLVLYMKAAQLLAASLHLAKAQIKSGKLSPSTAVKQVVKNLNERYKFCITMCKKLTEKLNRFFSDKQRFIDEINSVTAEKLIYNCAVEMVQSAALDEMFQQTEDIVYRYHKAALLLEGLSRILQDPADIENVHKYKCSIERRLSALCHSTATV

SMILES: COc1cc2ncnc(Nc3cccc(Cl)c3)c2cc1OC
- residual activity (ULK2 (human)): 103%
- residual activity (PIM2 (human)): 104%
- residual activity (PLK1 (human)): 105%
- residual activity (GSK3A (human)): 104%
- residual activity (MAPK14 (human)): 107%
- residual activity (PRKCE (human)): 97.8%
- residual activity (MAPK13 (human)): 99.8%
- residual activity (MAP3K8 (human)): 104%
- residual activity (EPHB1 (human)): 82.8%
- residual activity (FGFR2 (human)): 97.5%
- residual activity (PRKCB1 (human)): 103%
- residual activity (RPS6KB1 (human)): 88.5%
- residual activity (JAK2 JH1 JH2 (human)): 97.4%
- residual activity (PDPK1 (human)): 81.9%
- residual activity (PDGFRB (human)): 100%
- residual activity (ERBB2 (human)): 22.5%
- residual activity (CLK2 (human)): 89.6%
- residual activity (RPS6KA1 KD1 KD2 (human)): 87.3%
- residual activity (MAPK12 (human)): 98.5%
- residual activity (PRKD3 (human)): 86.5%
- residual activity (TBK1 (human)): 78%
- residual activity (MAPK1 (human)): 91.7%
- residual activity (AURKB (human)): 74.4%
- residual activity (MUSK (human)): 88.3%
- residual activity (FLT1 (human)): 74.4%
- residual activity (MAPKAPK5 (human)): 89.5%
- residual activity (FGFR1 (human)): 84.9%
- residual activity (INSRR (human)): 99%
- residual activity (PRKACA (human)): 98.6%
- residual activity (FYN (human)): 85.7%
- residual activity (AURKA (human)): 93.3%
- residual activity (PHKG2 (human)): 92.6%
- residual activity (PLK2 (human)): 102%
- residual activity (TYRO3 (human)): 96.7%
- residual activity (TSSK2 (human)): 94.8%
- residual activity (PAK3 (human)): 98.9%
- residual activity (WNK2 (human)): 98.6%
- residual activity (GRK6 (human)): 96.8%
- residual activity (DAPK2 (human)): 93.3%
- residual activity (INSR (human)): 77.6%

SMILES: CCN(CC)CCNC(=O)c1c(C)[nH]c(/C=C2\C(=O)Nc3ccc(F)cc32)c1C
- residual activity (ULK2 (human)): 40.3%
- residual activity (PIM2 (human)): 97.2%
- residual activity (PLK1 (human)): 96.4%
- residual activity (GSK3A (human)): 85.5%
- residual activity (MAPK14 (human)): 105%
- residual activity (PRKCE (human)): 98%
- residual activity (MAPK13 (human)): 92.4%
- residual activity (MAP3K8 (human)): 117%
- residual activity (MARK1 (human)): 40.9%
- residual activity (EPHB1 (human)): 53.6%
- residual activity (FGFR2 (human)): 50.5%
- residual activity (PRKCB1 (human)): 90.2%
- residual activity (RPS6KB1 (human)): 42.3%
- residual activity (JAK2 JH1 JH2 (human)): 88.8%
- residual activity (PDPK1 (human)): 81.6%
- residual activity (PDGFRB (human)): 17.6%
- residual activity (ERBB2 (human)): 105%
- residual activity (CLK2 (human)): 13.6%
- residual activity (RPS6KA1 KD1 KD2 (human)): 28%
- residual activity (MAPK12 (human)): 95.8%
- residual activity (PRKD3 (human)): 16.6%
- residual activity (MAPK1 (human)): 98.5%
- residual activity (AURKB (human)): 48.7%
- residual activity (MUSK (human)): 51.3%
- residual activity (FLT1 (human)): 58.7%
- residual activity (MAPKAPK5 (human)): 82.7%
- residual activity (FGFR1 (human)): 66.1%
- residual activity (INSRR (human)): 21.7%
- residual activity (PRKACA (human)): 89.1%
- residual activity (FYN (human)): 71.3%
- residual activity (AURKA (human)): 59.7%
- residual activity (PHKG2 (human)): 20.6%
- residual activity (PLK2 (human)): 99.2%
- residual activity (TYRO3 (human)): 28.3%
- residual activity (TSSK2 (human)): 72.9%
- residual activity (WNK2 (human)): 100%
- residual activity (GRK6 (human)): 74.7%

SMILES: O=S(=O)(c1cccc2cnccc12)N1CCCNCC1
- residual activity (ULK2 (human)): 101%
- residual activity (PIM2 (human)): 93.2%
- residual activity (PLK1 (human)): 103%
- residual activity (MAPK14 (human)): 104%
- residual activity (PRKCE (human)): 76.5%
- residual activity (MAPK13 (human)): 98.8%
- residual activity (MAP3K8 (human)): 91.8%
- residual activity (MARK1 (human)): 98.6%
- residual activity (EPHB1 (human)): 106%
- residual activity (FGFR2 (human)): 97.6%
- residual activity (PRKCB1 (human)): 94.6%
- residual activity (RPS6KB1 (human)): 76.6%
- residual activity (JAK2 JH1 JH2 (human)): 107%
- residual activity (PDPK1 (human)): 91.3%
- residual activity (PDGFRB (human)): 102%
- residual activity (ERBB2 (human)): 108%
- residual activity (CLK2 (human)): 95.1%
- residual activity (RPS6KA1 KD1 KD2 (human)): 89.2%
- residual activity (MAPK12 (human)): 99.3%
- residual activity (PRKD3 (human)): 65.8%
- residual activity (MAPK1 (human)): 98.1%
- residual activity (AURKB (human)): 98.8%
- residual activity (MUSK (human)): 97.6%
- residual activity (MARK2 (human)): 108%
- residual activity (FLT1 (human)): 90%
- residual activity (MAPKAPK5 (human)): 72.6%
- residual activity (FGFR1 (human)): 94.6%
- residual activity (INSRR (human)): 99.7%
- residual activity (FYN (human)): 106%
- residual activity (AURKA (human)): 101%
- residual activity (PHKG2 (human)): 95.4%
- residual activity (PLK2 (human)): 100%
- residual activity (TYRO3 (human)): 87.9%
- residual activity (TSSK2 (human)): 80.2%
- residual activity (PAK3 (human)): 103%
- residual activity (WNK2 (human)): 99.3%
- residual activity (GRK6 (human)): 95.4%
- residual activity (DAPK2 (human)): 83.6%
- residual activity (INSR (human)): 95%

SMILES: COc1ccc(COc2ccc(Cc3cnc(N)nc3N)cc2OC)cc1
- residual activity (ULK2 (human)): 105%
- residual activity (PIM2 (human)): 107%
- residual activity (PLK1 (human)): 97.1%
- residual activity (GSK3A (human)): 108%
- residual activity (MAPK14 (human)): 106%
- residual activity (PRKCE (human)): 95.7%
- residual activity (MAPK13 (human)): 96%
- residual activity (MAP3K8 (human)): 98.4%
- residual activity (MARK1 (human)): 103%
- residual activity (EPHB1 (human)): 103%
- residual activity (FGFR2 (human)): 102%
- residual activity (PRKCB1 (human)): 102%
- residual activity (RPS6KB1 (human)): 89.5%
- residual activity (JAK2 JH1 JH2 (human)): 89.2%
- residual activity (PDPK1 (human)): 89.4%
- residual activity (PDGFRB (human)): 98.2%
- residual activity (ERBB2 (human)): 106%
- residual activity (CLK2 (human)): 94.3%
- residual activity (RPS6KA1 KD1 KD2 (human)): 92.7%
- residual activity (MAPK12 (human)): 102%
- residual activity (PRKD3 (human)): 97.1%
- residual activity (TBK1 (human)): 103%
- residual activity (MAPK1 (human)): 110%
- residual activity (AURKB (human)): 104%
- residual activity (MUSK (human)): 102%
- residual activity (FLT1 (human)): 99.7%
- residual activity (MAPKAPK5 (human)): 87.5%
- residual activity (FGFR1 (human)): 108%
- residual activity (INSRR (human)): 99.4%
- residual activity (PRKACA (human)): 104%
- residual activity (FYN (human)): 102%
- residual activity (AURKA (human)): 105%
- residual activity (PHKG2 (human)): 106%
- residual activity (PLK2 (human)): 116%
- residual activity (TYRO3 (human)): 110%
- residual activity (TSSK2 (human)): 109%
- residual activity (PAK3 (human)): 102%
- residual activity (WNK2 (human)): 94.6%
- residual activity (GRK6 (human)): 99.8%
- residual activity (DAPK2 (human)): 95.3%
- residual activity (INSR (human)): 97%

SMILES: CC(C)N(CCC(=O)c1ccc2ccccc2c1)Cc1ccccc1
- residual activity (ULK2 (human)): 113%
- residual activity (PIM2 (human)): 104%
- residual activity (PLK1 (human)): 97.8%
- residual activity (GSK3A (human)): 98.8%
- residual activity (MAPK14 (human)): 94.4%
- residual activity (PRKCE (human)): 95%
- residual activity (MAPK13 (human)): 96.2%
- residual activity (MAP3K8 (human)): 94.6%
- residual activity (MARK1 (human)): 97.7%
- residual activity (EPHB1 (human)): 96.8%
- residual activity (FGFR2 (human)): 107%
- residual activity (PRKCB1 (human)): 92.6%
- residual activity (RPS6KB1 (human)): 97.2%
- residual activity (JAK2 JH1 JH2 (human)): 97.5%
- residual activity (ERBB2 (human)): 98.7%
- residual activity (CLK2 (human)): 96.3%
- residual activity (RPS6KA1 KD1 KD2 (human)): 97.6%
- residual activity (MAPK12 (human)): 96.2%
- residual activity (PRKD3 (human)): 98.1%
- residual activity (TBK1 (human)): 92.4%
- residual activity (MAPK1 (human)): 87.4%
- residual activity (AURKB (human)): 101%
- residual activity (MUSK (human)): 112%
- residual activity (MARK2 (human)): 97.9%
- residual activity (FLT1 (human)): 86%
- residual activity (MAPKAPK5 (human)): 96.6%
- residual activity (FGFR1 (human)): 99.5%
- residual activity (INSRR (human)): 90.1%
- residual activity (FYN (human)): 95.3%
- residual activity (AURKA (human)): 104%
- residual activity (PHKG2 (human)): 99.9%
- residual activity (PLK2 (human)): 97%
- residual activity (TYRO3 (human)): 98.9%
- residual activity (TSSK2 (human)): 100%
- residual activity (PAK3 (human)): 98.6%
- residual activity (WNK2 (human)): 107%
- residual activity (GRK6 (human)): 87.1%
- residual activity (DAPK2 (human)): 99.6%
- residual activity (INSR (human)): 107%
